# Results: US20220378766A1, “[…] OF A GENE ENCODING AN […] BY TREATING A HUMAN SUBJECT WITH A NITROXIDE” (priority 2021, published 2022)
# Test system: UCP3
# Assay: Effects of Tempol on gene expression in mice, chip-based microarray of cardiac tissue
# Format: in vivo
# Settings: Tempol 5 mg/g of food from 14 to 31 months after birth
# Experimental: To assess the effects of Tempol on gene expression, Tempol was administered to experimental mice at a dose of 5 mg/g of food from 14 months to 31 months after birth. Mice receiving the same food without the addition of Tempol were used as a negative control. At the age of 31 months, the experimental animals were sacrificed and the hearts were surgically removed. The expression of a broad spectrum of genes in the cardiac tissue was assessed using chip-based microarray technology. Such chips are well known in the art and are widely used to assess gene expression.
smiles,measurement,setting,value
"CC1(C)CC(O)CC(C)(C)N1[O] [Tempol, 4-hydroxy-2,2,6,6-tetramethylpiperidine-1-oxyl]",expression of UCP3,"cardiac tissue, microarray",statistically significant increase in expression
same,Fold change (UCP3 gene expression after Tempol administration),"vs. same food without Tempol, cardiac tissue per text (table title says adipose tissue), P-value 0.00",1.57
